Data as given in patent publication US12473296B2, “Perk inhibiting compounds” (HiberCell, Inc., priority 2019, dated 2025).

Columns and labels:
PERK = PERK (Homo sapiens (Human), UniProt Q9NZJ5); assay: PERK cellular assay (TR-FRET, HEK293-EGFP-eIF2α cells, tunicamycin-induced ER stress); assay type: cell-based; conditions: tunicamycin 2 hours, read-out: Cellular IC50 (μM) (EIF2a)
Procedure, shortened: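 After 2 h tunicamycin ([…]) stress following 30 min compound pretreatment at 37 °C, lysed HEK293-EGFP-eIF2α cells were read by TR-FRET. IC50 derived by 4-parameter logistic fitting of percent inhibition, DMSO-normalized, from 10-point 3-fold dilutions.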

[1] = target: EIF2AK3 (PERK) catalytic domain (amino acids 536-1116) (Homo sapiens (Human), UniProt Q9NZJ5); assay: PERK in vitro activity assay (isolated), TR-FRET kinase assay; conditions: isolated PERK enzyme, 1.5 μM ATP, GFP-eIF2a substrate; read-out: Biochemical IC50
Procedure, shortened: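 Human PERK catalytic domain (aa 536-1116) with 100-200 nM GFP-eIF2a in 50 mM HEPES pH 7.5, 10 mM MgCl2, 1.0 mM EGTA, 0.01% Brij-35; enzyme-started reaction run 45 min at room temperature. Stopped with 10 mM EDTA, 2 nM Tb-anti-phospho-eIF2a added for 90 min; IC50 from TR-FRET ratio by 4-parameter logistic fit.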

PERK, sequence (Q9NZJ5 30-1116): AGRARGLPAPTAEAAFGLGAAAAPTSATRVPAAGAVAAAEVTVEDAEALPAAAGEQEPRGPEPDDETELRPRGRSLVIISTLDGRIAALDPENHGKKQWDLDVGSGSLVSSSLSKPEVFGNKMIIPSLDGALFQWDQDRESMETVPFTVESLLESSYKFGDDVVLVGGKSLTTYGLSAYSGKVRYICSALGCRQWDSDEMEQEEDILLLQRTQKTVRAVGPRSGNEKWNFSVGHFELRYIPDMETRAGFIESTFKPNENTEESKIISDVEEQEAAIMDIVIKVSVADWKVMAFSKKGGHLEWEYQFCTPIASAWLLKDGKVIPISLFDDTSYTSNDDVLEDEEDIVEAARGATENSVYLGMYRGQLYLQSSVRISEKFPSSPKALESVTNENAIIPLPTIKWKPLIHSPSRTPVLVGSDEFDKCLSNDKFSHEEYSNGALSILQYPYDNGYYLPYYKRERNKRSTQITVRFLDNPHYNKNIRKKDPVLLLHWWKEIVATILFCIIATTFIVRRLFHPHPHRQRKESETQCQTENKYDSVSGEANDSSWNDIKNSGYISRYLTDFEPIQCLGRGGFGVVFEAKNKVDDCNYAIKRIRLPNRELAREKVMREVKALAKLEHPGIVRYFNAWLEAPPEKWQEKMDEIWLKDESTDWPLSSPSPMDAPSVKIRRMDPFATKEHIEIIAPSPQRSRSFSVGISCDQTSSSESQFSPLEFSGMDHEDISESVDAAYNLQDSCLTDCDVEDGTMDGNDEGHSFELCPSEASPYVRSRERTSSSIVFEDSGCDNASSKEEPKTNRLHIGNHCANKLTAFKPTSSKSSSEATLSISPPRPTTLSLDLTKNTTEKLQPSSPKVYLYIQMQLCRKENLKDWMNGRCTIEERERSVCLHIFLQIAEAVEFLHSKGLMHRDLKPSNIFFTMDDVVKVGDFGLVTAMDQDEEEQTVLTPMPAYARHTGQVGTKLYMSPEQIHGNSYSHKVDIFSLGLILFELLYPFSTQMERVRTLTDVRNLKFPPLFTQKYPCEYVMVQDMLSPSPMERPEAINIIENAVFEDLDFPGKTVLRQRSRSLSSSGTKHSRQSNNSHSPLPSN
EIF2AK3 (PERK) catalytic domain (amino acids 536-1116), sequence (Q9NZJ5 536-1116): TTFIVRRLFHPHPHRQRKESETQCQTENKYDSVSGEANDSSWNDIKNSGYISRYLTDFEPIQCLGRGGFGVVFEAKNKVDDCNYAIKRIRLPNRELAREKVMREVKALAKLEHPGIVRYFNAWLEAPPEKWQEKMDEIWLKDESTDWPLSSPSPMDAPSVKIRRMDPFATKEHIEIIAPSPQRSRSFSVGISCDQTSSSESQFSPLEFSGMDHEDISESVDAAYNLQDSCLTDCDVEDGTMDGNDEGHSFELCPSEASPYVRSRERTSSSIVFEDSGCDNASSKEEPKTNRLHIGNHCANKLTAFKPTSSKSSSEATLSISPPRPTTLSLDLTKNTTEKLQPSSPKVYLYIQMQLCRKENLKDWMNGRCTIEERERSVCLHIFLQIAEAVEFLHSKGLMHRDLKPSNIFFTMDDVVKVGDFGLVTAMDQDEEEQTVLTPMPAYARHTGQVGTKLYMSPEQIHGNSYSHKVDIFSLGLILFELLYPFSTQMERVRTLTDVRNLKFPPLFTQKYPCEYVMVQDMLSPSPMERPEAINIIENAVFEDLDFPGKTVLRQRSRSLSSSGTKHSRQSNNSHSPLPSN

Row | IC50 (PERK) | IC50 [1] | Compound
1 | 0.101 to 0.25 µM | 101 to 250 nM | CCc1cc(NC(=O)C(O)c2cc(F)cc(F)c2)ccc1-c1cnc(N)c(C(=O)NC2CC2)n1 (stereo not drawn) [Example 157, 3-amino-N-cyclopropyl-6-(4-(2-(3,5-difluorophenyl)-2-hydroxyacetamido)-2-ethylphenyl) pyrazine-2-carboxamide]
2 | 0.001 to 0.025 µM | 1 to 25 nM | CCc1cc(NC(=O)C(O)c2cc(F)cc(F)c2)ccc1-c1cnc(N)c(C(=O)NC2COC2)n1 (stereo not drawn) [Example 158, 3-amino-6-(4-(3-(3,5-difluorophenyl)-2-hydroxyacetamido)-2-ethylphenyl)-N-(oxetan-3-yl)pyrazine-2-carboxamide]
3 | 0.101 to 0.25 µM | 26 to 50 nM | CCc1cc(NC(=O)C(O)c2cc(F)cc(F)c2)ccc1-c1cnc(N)c(C(=O)NC2COC2)n1 (stereo not drawn) [Example 159, 3-amino-6-(4-(2-(3,5-difluorophenyl)-2-hydroxyacetamido)-2-ethylphenyl)-N-(oxetan-3-yl)pyrazine-2-carboxamide]
4 | 0.001 to 0.025 µM | 1 to 25 nM | CCc1cc(NC(=O)C(O)c2cccc(C)c2)ccc1-c1cnc(N)c(C(=O)NC(C)C)n1 (stereo not drawn) [Example 160, 3-amino-6-(2-ethyl-4-(2-hydroxy-2-(m-tolyl)acetamido)phenyl)-N-isopropylpyrazine-2-carboxamide]
5 | 0.251 to 0.5 µM | 51 to 100 nM | CCc1cc(NC(=O)C(O)c2cccc(C)c2)ccc1-c1cnc(N)c(C(=O)NC(C)C)n1 (stereo not drawn) [Example 161, 3-amino-6-(2-ethyl-4-(2-hydroxy-2-(m-tolyl)acetamido)phenyl)-N-isopropylpyrazine-2-carboxamide]
6 | 0.251 to 0.5 µM | 1000 to 2000 nM | Nc1ncc(-c2ccc(NC(=O)C(O)c3cc(F)cc(F)c3)cc2Cl)nc1C(=O)NCC(F)(F)F (stereo not drawn) [Example 164, 3-amino-6-(2-chloro-4-(2-(3,5-difluorophenyl)-2-hydroxyacetamido)phenyl)-N-(2,2,2-trifluoroethyl) pyrazine-2-carboxamide]
7 | 0.026 to 0.05 µM | 51 to 100 nM | Nc1ncc(-c2ccc(NC(=O)C(O)c3cc(F)cc(F)c3)cc2Cl)nc1C(=O)NCC(F)(F)F (stereo not drawn) [Example 165, 3-amino-6-(2-chloro-4-(2-(3,5-difluorophenyl)-2-hydroxyacetamido)phenyl)-N-(2,2,2-trifluoroethyl) pyrazine-2-carboxamide]
8 | 0.101 to 0.25 µM | 51 to 100 nM | Nc1ncc(-c2ccc(NC(=O)C(O)c3cc(F)cc(F)c3)cc2Cl)nc1C(=O)NC1COC1 (stereo not drawn) [Example 168, 3-amino-6-(2-chloro-4-(2-(3,5-difluorophenyl)-2-hydroxyacetamido)phenyl)-N-(oxetan-3-yl)pyrazine-2-carboxamide]
9 | 0.001 to 0.025 µM | 1 to 25 nM | Nc1ncc(-c2ccc(NC(=O)C(O)c3cc(F)cc(F)c3)cc2Cl)nc1C(=O)NC1COC1 (stereo not drawn) [Example 169, 3-amino-6-(2-chloro-4-(2-(3,5-difluorophenyl)-2-hydroxyacetamido)phenyl)-N-(oxetan-3-yl)pyrazine-2-carboxamide]
10 | 2 to 3 µM | 51 to 100 nM | Cc1cc(NC(=O)C(O)c2cc(F)cc(F)c2)ccc1-c1ccc(N)nc1 (stereo not drawn) [Example 170, N-(4-(6-aminopyridin-3-yl)-3-methylphenyl)-2-(3,5-difluorophenyl)-2-hydroxyacetamide]
11 | > 5 µM | 251 to 500 nM | Cc1cc(NC(=O)C(O)c2cc(F)cc(F)c2)ccc1-c1ccc(N)nc1 (stereo not drawn) [Example 171, N-(4-(6-aminopyridin-3-yl)-3-methylphenyl)-2-(3,5-difluorophenyl)-2-hydroxyacetamide]
12 | 1 to 2 µM | 51 to 100 nM | CNc1ccc(-c2ccc(NC(=O)C(O)c3cc(F)cc(F)c3)cc2C)cn1 (stereo not drawn) [Example 172, 2-(3,5-difluorophenyl)-2-hydroxy-N-(3-methyl-4-(6-(methylamino)pyridin-3-yl)phenyl) acetamide]
13 | > 5 µM | 101 to 250 nM | CNc1ccc(-c2ccc(NC(=O)C(O)c3cc(F)cc(F)c3)cc2C)cn1 (stereo not drawn) [Example 173, 2-(3,5-difluorophenyl)-2-hydroxy-N-(3-methyl-4-(6-(methylamino)pyridin-3-yl)phenyl)acetamide]
14 | 4 to 5 µM | 101 to 250 nM | CNc1ncc(-c2ccc(NC(=O)C(O)c3cc(F)cc(F)c3)cc2C)cc1C(=O)NC(C)C (stereo not drawn) [Example 174, 5-(4-(2-(3,5-difluorophenyl)-2-hydroxyacetamido)-2-methylphenyl)-N-isopropyl-2-(methylamino) nicotinamide]
15 | > 5 µM | 1000 to 2000 nM | CNc1ncc(-c2ccc(NC(=O)C(O)c3cc(F)cc(F)c3)cc2C)cc1C(=O)NC(C)C (stereo not drawn) [Example 175, 5-(4-(2-(3,5-difluorophenyl)-2-hydroxyacetamido)-2-methylphenyl)-N-isopropyl-2-(methylamino) nicotinamide]
16 | 0.501 to 1 µM | 51 to 100 nM | Cc1cc(NC(=O)C(O)c2cc(F)cc(F)c2)ccc1-c1cnc(C)c(C(=O)NC(C)C)c1 (stereo not drawn) [Example 176, 5-(4-(2-(3,5-difluorophenyl)-2-hydroxyacetamido)-2-methylphenyl)-N-isopropyl-2-methylnicotinamide]
17 | 0.251 to 0.5 µM | 26 to 50 nM | Cc1cc(NC(=O)C(O)c2cc(F)cc(F)c2)ccc1-c1cnc(C)c(C(=O)NC(C)C)c1 (stereo not drawn) [Example 177, 5-(4-(2-(3,5-difluorophenyl)-2-hydroxyacetamido)-2-methylphenyl)-N-isopropyl-2-methylnicotinamide]
18 | 0.101 to 0.25 µM | 26 to 50 nM | Cc1cc(NC(=O)C(O)c2cc(F)cc(F)c2)ccc1-c1cncc(C(=O)NC(C)C)c1 (stereo not drawn) [Example 178, 5-(4-(2-(3,5-difluorophenyl)-2-hydroxyacetamido)-2-methylphenyl)-N-isopropylnicotinamide]
19 | 0.501 to 1 µM | 101 to 250 nM | Cc1cc(NC(=O)C(O)c2cc(F)cc(F)c2)ccc1-c1cncc(C(=O)NC(C)C)c1 (stereo not drawn) [Example 179, 5-(4-(2-(3,5-difluorophenyl)-2-hydroxyacetamido)-2-methylphenyl)-N-isopropylnicotinamide]
20 | > 5 µM | 1000 to 2000 nM | Cc1ccc(-c2ccc(NC(=O)C(O)c3cc(F)cc(F)c3)cc2C)cn1 (stereo not drawn) [Example 180, 2-(3,5-difluorophenyl)-2-hydroxy-N-(3-methyl-4-(6-methylpyridin-3-yl)phenyl)acetamide]
21 | > 5 µM | > 5000 nM | Cc1ccc(-c2ccc(NC(=O)C(O)c3cc(F)cc(F)c3)cc2C)cn1 (stereo not drawn) [Example 181, 2-(3,5-difluorophenyl)-2-hydroxy-N-(3-methyl-4-(6-methylpyridin-3-yl)phenyl)acetamide]
22 | 2 to 3 µM | 251 to 500 nM | Cc1cc(N(O)C(=O)C(O)c2cc(F)cc(F)c2)ccc1-c1cnc(N)c(C(=O)NC(C)C)c1 (stereo not drawn) [Example 182, 2-amino-5-(4-(2-(3,5-difluorophenyl)-N,2-dihydroxyacetamido)-2-methylphenyl)-N-isopropylnicotinamide]
23 | 2 to 3 µM | 101 to 250 nM | Cc1cc(NC(=O)C(F)(F)c2ccccc2)ccc1-c1cnc(N)c(C(=O)NC(C)C)c1 [Example 183, 2-amino-5-(4-(2,2-difluoro-2-phenylacetamido)-2-methylphenyl)-N-isopropylnicotinamide]
24 | 0.101 to 0.25 µM | 251 to 500 nM | Cc1cc(NC(=O)C(=O)c2cc(F)cc(F)c2)ccc1-c1cnc(N)c(C(=O)NC(C)C)c1 [Example 184, 2-amino-5-(4-(2-(3,5-difluorophenyl)-2-oxoacetamido)-2-methylphenyl)-N-isopropyl nicotinamide]
